# From US10682367B2, “Antitumor arylnaphthalene ligand glycosides” (OHIO STATE INNOVATION FOUNDATION, priority 2016, dated 2020)
# Read-outs that look alike come from different tables or passages of the source.
# How the values were obtained:
# [1] = test system: HT-29 cells; assay: Cytotoxicity / antiproliferative activity against HT-29 cells; type: cell-based; conditions: for IC50: HT-29 cells, antiproliferative activity
# Source text: The cytotoxicity of the compounds in FIG. 1 was screened against HT-29 cells by a previously reported procedure (Ren Y et al. J. Nat. Prod 2011, 74, 1117-1125). A summary of the results is described in Table 1.
# [2] = test system: OVCAR3 ovarian cancer cell line; assay: IC50 in ovarian cancer cell line OVCAR3; type: cell-based
# Method: (§1) The compounds shown in FIG. 2 were tested against two different ovarian cancer cell lines (xenograft mouse model OVCAR3 and OVCAR8 ovarian cancer cell lines). […] A summary of the test data is shown in FIGS. 3A, 3B, and 4 and Table 3. A comparison of the IC50 values of the compounds in FIG. 2 in two of the ovarian cancer cell lines (OVCAR3 and OVCAR8) reveal subtle differences in activity.
# [3] = test system: OVCAR8 ovarian cancer cell line; assay: IC50 in ovarian cancer cell line OVCAR8; type: cell-based
# Method: as §1
# [4] = Solubility, plate reader-based absorbance assay; type: physicochemical
# Source text: A series of compounds were synthesized to improve their water solubility. In particular, phyllanthusmin derivatives including an arabinose derivative with a free C2 hydroxy group, have been explored to produce phosphate, succinate, and amino acid conjugates. In addition PHY-25 and PHY-30 have also been synthesized to contain similar alcohol functionality that can ultimately be utilized to improve water solubility. PHY-28 and PHY-29 containing a glucosamine moiety were also synthesized for improved water solubility. The water solubility of these and other PHY derivatives was assessed (Table 2) to establish a baseline of solubility in a series of 4 solutions. This was accomplished using a plate reader-based absorbance assay.
# (§2) The solubility, maximum tolerated dose, and pharmacokinetics of the phyllanthusmins, facilitating the in vivo studies with PHY-34, were also determined. The solubility of the compounds were assessed in DMSO, PEG300, HPβCD, and PBS. The stability of PHY-34 was assessed in a formulation comprising PEG300 and saline at a 1:1 volume ratio. The solution was prepared at a concentration of 7 mg/ml. A plate reader-based absorbance assay or LC-MS/MS was used. Table 4 summarizes the solubility measurements. FIG. 5 and Table 5 summarize the stability measurements. FIGS. 6A and 6B show the concentration-time profile of PHY-34 in mouse plasma via different administration routes
# [5] = Structure-activity remarks on potency of PHY analogues (test not named); conditions: relative to PHY-34 type acetal
# [6] = Stability of PHY-34 in PEG300/saline formulation; type: physicochemical; conditions: for Stability of PHY-34 / Stability of PHY-34, second value column: PEG300:saline 1:1, 7 mg/ml
# Method: as §2
# [7] = test system: mice; assay: Toxicity and maximum tolerated dose in mice by IV, IP or PO route; type: in vivo; conditions: for MTD (maximum tolerated dose) / Toxicity (survival): mice
# Method: To determine toxicity, PHY-34 was administered to mice by the bolus intravenous (IV), bolus intraperitoneal (IP), or oral (PO) route to the assigned animals.
# [8] = mouse, in vivo
# Method: as §2
# [9] = Hollow fiber assay; set-up: species or system mice; conditions: mouse
# Method: Hollow fiber assay, IVIS imaging, tubulin inhibition, autophagy, and tumor burden were determined in mice exposed to various arylnaphthalene ligans.
# [10] = test system: numerous other cell lines; assay: In vitro activity in numerous other cell lines; type: cell-based
compound,measurement,setting,value
COc1cc2c(OCCOCc3ccccc3)c3c(c(-c4ccc5c(c4)OCO5)c2cc1OC)C(=O)OC3 [PHY-17],IC50,[1],1.42 µM
"acutissimalignan A [ACUTA, reference compound]",IC50,[2]; OVCAR3,3.13 µM
same,IC50,[3]; OVCAR8,0.0358 µM
COCC1OC(Oc2c3c(c(-c4ccc5c(c4)OCO5)c4cc(OC)c(OC)cc24)C(=O)OC3)C(OC)C2OC(C)(C)OC12 (centres unmarked) [PHY-35],IC50,[2]; OVCAR3,0.00485 µM
same,IC50,[3]; OVCAR8,0.00704 µM
same,Solubility in DMSO,[4],86.8 mg/mL
same,Solubility in PEG300,[4],25.4 mg/mL
COc1cc2c(OC)c3c(c(-c4ccc5c(c4)OCO5)c2cc1OC)C(=O)OC3 [PHY-26],IC50,[2]; OVCAR3,12.1 µM
same,IC50,[3]; OVCAR8,0.151 µM
"CC(=O)O[C@H]1C(=O)[C@@]2(C)[C@H]([C@H](OC(=O)c3ccccc3)[C@]3(O)C[C@H](OC(=O)[C@H](O)[C@@H](NC(=O)c4ccccc4)c4ccccc4)C(C)=C1C3(C)C)[C@]1(OC(C)=O)CO[C@@H]1C[C@@H]2O [TAXOL, Taxol, reference compound]",IC50,"[2]; Homo sapiens, OVCAR-3",0.00591 µM
same,IC50,"[3]; Homo sapiens, OVCAR-8",0.00776 µM
"COc1cc2c(OC3OC4COC(C)OC4C(OC)C3OC)c3c(c(-c4ccc5c(c4)OCO5)c2cc1OC)C(=O)OC3 [PHY-33, 7-O-(4,6-O-ethylidene-2,3-di-O-methyl-β-D-galactopyranosyl)-diphyllin]",effect of acetal variation on potency (in words),[5],loss of potency
COc1cc2c(O[C@@H]3O[C@H](CO)[C@@H](O)[C@H](O)[C@H]3NC(C)=O)c3c(c(-c4ccc5c(c4)OCO5)c2cc1OC)C(=O)OC3 [PHY-29],IC50,[1],19 µM
COc1cc2c(OC3OC(CO)C4OC5(CCCC5)OC4C3O)c3c(c(-c4ccc5c(c4)OCO5)c2cc1OC)C(=O)OC3 (centres unmarked) [PHY-43],IC50,[2]; OVCAR3,0.119 µM
same,IC50,[3]; OVCAR8,0.00244 µM
same,effect of acetal variation on potency (in words),[5],well tolerated
COc1cc2c(OCC(O)CO)c3c(c(-c4ccc5c(c4)OCO5)c2cc1OC)C(=O)OC3 (centres unmarked) [PHY-19],IC50,[1],1.56 µM
"COc1cc2c(OC3OC4COC(C)OC4C(O)C3O)c3c(c(-c4ccc5c(c4)OCO5)c2cc1OC)C(=O)OC3 [PHY-32, 7-O-(4,6-O-ethylidene-β-D-galactopyranosyl)-diphyllin]",effect of acetal variation on potency (in words),[5],loss of potency
COc1cc2c(OC3OC(CO)C4OC(C)(C)OC4C3O)c3c(c(-c4ccc5c(c4)OCO5)c2cc1OC)C(=O)OC3 (centres unmarked) [PHY-34],activity against HT-29 cells (in words),[1]; in vitro,sub-nanomolar
same,IC50,[2]; OVCAR3,0.00394 µM
same,potency in ovarian cancer cell lines (in words),[2]; OVCAR3,highest potency
same,IC50,[3]; OVCAR8,0.00406 µM
same,potency in ovarian cancer cell lines (in words),[3]; OVCAR8,highest potency
same,Solubility in 30% HPβCD,[4],1.7 mg/mL
same,Solubility in DMSO,[4],114.4 mg/mL
same,Solubility in PBS,[4],0.03 mg/mL
same,Solubility in PEG300,[4],27.6 mg/mL
same,Stability of PHY-34,"[6]; 4° C., 1 week",86
same,Stability of PHY-34,"[6]; 4° C., 1 day",95
same,"Stability of PHY-34, second value column","[6]; 4° C., 1 day",77
same,Stability of PHY-34,"[6]; RT, 0 hr",100
same,"Stability of PHY-34, second value column","[6]; RT, 0 hr",100
same,Stability of PHY-34,"[6]; RT, 6 hr",87
same,"Stability of PHY-34, second value column","[6]; RT, 6 hr",82
same,Stability of PHY-34,"[6]; −20° C., 1 week",87
same,"Stability of PHY-34, second value column","[6]; −20° C., 1 week",77
same,Stability of PHY-34,"[6]; −20° C., 1 day",90
same,"Stability of PHY-34, second value column","[6]; −20° C., 1 day",82
same,Stability of PHY-34,"[6]; −80° C., 1 week",86
same,"Stability of PHY-34, second value column","[6]; −80° C., 1 week",81
same,Stability of PHY-34,"[6]; −80° C., 1 day",93
same,"Stability of PHY-34, second value column","[6]; −80° C., 1 day",80
same,stability of PHY-34 solution upon storage (in words),[6]; storage for one week at 4° C. to −80° C.,stable (no significant degradation)
same,MTD (maximum tolerated dose),[7]; IP,1.8 mpk
same,Toxicity (survival),"[7]; IP, 0.6 mpk",all 3 alive
same,Toxicity (survival),"[7]; IP, 1.8 mpk",all 5 alive
same,Toxicity (survival),"[7]; IP, 3 mpk, within 0.5",all 3 died within 0.5
same,Toxicity (survival),"[7]; IP, 6 mpk, within 0.5 hour",all 5 died within 0.5
same,MTD (maximum tolerated dose),[7]; IV,0.6 mpk
same,Toxicity (survival),"[7]; IV, 0.3 mpk",all 5 alive
same,Toxicity (survival),"[7]; IV, 0.6 mpk",all 5 alive
same,Toxicity (survival),"[7]; IV, 1 mpk, within 0.5 hour",1 out of 5 died within
same,Toxicity (survival),"[7]; IV, 3 mpk, within 5 minutes",all 5 died within 5
same,MTD (maximum tolerated dose),[7]; PO,>30 mpk
same,Toxicity (survival),"[7]; PO, 30 mpk",all 5 alive
same,toxicity on oral dosing (in words),"[7]; oral dosing, up to 30 mpk",no toxicity
same,AUC on oral dosing (in words),[8],reasonable AUCs
same,efficacy in vivo in hollow fiber assay (in words),[9],demonstrated efficacy
same,activity in numerous other cell lines (in words),[10],single digit nanomolar
COc1cc2c(O[C@@H]3O[C@H](COC(C)=O)[C@@H](OC(C)=O)[C@H](OC(C)=O)[C@H]3NC(C)=O)c3c(c(-c4ccc5c(c4)OCO5)c2cc1OC)C(=O)OC3 [PHY-28],IC50,[1],1.55 µM
COc1cc2c(OC3OCC4OC(C)(C)OC4C3O)c3c(c(-c4ccc5c(c4)OCO5)c2cc1OC)C(=O)OC3 (centres unmarked) [PHY-30],IC50,[1],0.0108 µM
same,IC50,[2]; OVCAR3,0.0115 µM
same,IC50,[3]; OVCAR8,0.0117 µM
phyllanthusmins B [PHY-3],Solubility in 10% Cremaphor EL/PBS,[4],8.9 mg/mL
same,Solubility in DMSO,[4],16 mg/mL
same,Solubility in PBS,[4],0.18 mg/mL
same,Solubility in PEG300,[4],30 mg/mL
"COc1cc2c(O[C@@H]3OC[C@H](OC(C)=O)[C@H](OC(C)=O)[C@H]3OC(C)=O)c3c(c(-c4ccc5c(c4)OCO5)c2cc1OC)C(=O)OC3 [PHY-7, 7-O-((2,3,4-tri-O-acetyl)-α-L-arabinopyranosyl) diphyllin]",Solubility in 10% Cremaphor EL/PBS,[4],7.4 mg/mL
same,Solubility in DMSO,[4],112 mg/mL
same,Solubility in PBS,[4],0.14 mg/mL
same,Solubility in PEG300,[4],5.7 mg/mL
phyllanthusmins C [PHY-4],Solubility in 10% Cremaphor EL/PBS,[4],9.4 mg/mL
same,Solubility in DMSO,[4],63 mg/mL
same,Solubility in PBS,[4],0.17 mg/mL
same,Solubility in PEG300,[4],32 mg/mL
phyllanthusmins C [PHY-15],Solubility in 10% Cremaphor EL/PBS,[4],10 mg/mL
same,Solubility in DMSO,[4],75 mg/mL
same,Solubility in PBS,[4],0.20 mg/mL
same,Solubility in PEG300,[4],14 mg/mL
COc1cc2c(OC3OCC4OC(C)(C)OC4C3OC)c3c(c(-c4ccc5c(c4)OCO5)c2cc1OC)C(=O)OC3 (centres unmarked) [PHY-31],IC50,[1],0.00529 µM
C=CCOc1c2c(c(-c3ccc4c(c3)OCO4)c3cc(OC)c(OC)cc13)C(=O)OC2 [PHY-18],IC50,[1],0.57 µM
"COc1cc([C@@H]2c3cc4c(cc3[C@@H](O[C@@H]3O[C@@H]5CO[C@@H](C)O[C@H]5[C@H](O)[C@H]3O)[C@H]3COC(=O)[C@H]23)OCO4)cc(OC)c1O [ETOPO, etoposide, reference compound]",IC50,[2]; OVCAR3,2.38 µM
same,IC50,[3]; OVCAR8,8.13 µM
COc1cc2c(OC3OC(CO)C(OC)C(OC)C3OC)c3c(c(-c4ccc5c(c4)OCO5)c2cc1OC)C(=O)OC3 (centres unmarked) [PHY-25],IC50,[1],0.0017 µM
same,IC50,[2]; OVCAR3,1.5 µM
same,IC50,[3]; OVCAR8,0.0104 µM
phyllanthusmins C [PHY-20],IC50,[1],1.21 µM
same,Solubility in 10% Cremaphor EL/PBS,[4],10 mg/mL
same,Solubility in DMSO,[4],86 mg/mL
same,Solubility in PBS,[4],0.16 mg/mL
same,Solubility in PEG300,[4],24 mg/mL
COc1cc2c(OC3OC(CO)C4OC5(CCCCC5)OC4C3O)c3c(c(-c4ccc5c(c4)OCO5)c2cc1OC)C(=O)OC3 (centres unmarked) [PHY-42],IC50,[2]; OVCAR3,0.377 µM
same,IC50,[3]; OVCAR8,0.00199 µM
same,effect of acetal variation on potency (in words),[5],well tolerated
phyllanthusmins D [PHY-1],IC50,[2]; OVCAR3,10.9 µM
same,IC50,[3]; OVCAR8,0.0499 µM
same,Solubility in 10% Cremaphor EL/PBS,[4]; Table 2,8.4 mg/mL
same,Solubility in DMSO,[4]; Table 2,97 mg/mL
same,Solubility in PBS,[4]; Table 2,0.12 mg/mL
same,Solubility in PEG300,[4]; Table 2,33 mg/mL
phyllanthusmins C [PHY-11],Solubility in 10% Cremaphor EL/PBS,[4],10 mg/mL
same,Solubility in DMSO,[4],83 mg/mL
same,Solubility in PBS,[4],0.18 mg/mL
same,Solubility in PEG300,[4],15 mg/mL
COc1cc2c(OC3OC(CO)C4OC(C)(C)OC4C3OC)c3c(c(-c4ccc5c(c4)OCO5)c2cc1OC)C(=O)OC3 (centres unmarked) [PHY-37],IC50,[2]; OVCAR3,0.00359 µM
same,IC50,[3]; OVCAR8,0.00487 µM
same,Solubility in 30% HPβCD,[4]; Table 4,0.6 mg/mL
same,Solubility in DMSO,[4]; Table 4,104.0 mg/mL
same,Solubility in PBS,[4]; Table 4,— (below the limit of quantitation (0.01 mg/ml))
same,Solubility in PEG300,[4]; Table 4,28.7 mg/mL
